Data from patent publication US7511065B2, “Mixed lineage kinase modulators” (Eli Lilly and Company, priority 2002, dated 2009).

Each molecule was assayed against T1, MLK-7 (Homo sapiens, UniProt Q9NYL2) (assay: In vitro assay of purified MLK-7 kinase activity (33P transfer from ATP to myelin basic protein)). Details: recombinant GST-tagged MLK-7 at 1 nm, 30 uM ATP, 5 uM MBP substrate, 2 hours room temperature; read-out: MLK7 IC50.
T1 construct: GST; His tag; made in house; host or cells: Sf9 insect cells (baculovirus, pVL1392)
Type: biochemical
Procedure, shortened: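 GST/His-tagged MLK-7 from Sf9 (baculovirus), 1 nM, with 5 uM MBP, 30 uM ATP plus 33P, 5 mM MgCl2, 2 mM DTT, 4% DMSO in 44 mM HEPES pH 7.4; 2 h at room temperature, stopped with phosphoric acid. Filter-bound 33P counted; IC50 for reduced phosphate transfer, Ki via Cheng-Prusoff.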

T1 sequence (Q9NYL2 1-455 isoform Q9NYL2-2): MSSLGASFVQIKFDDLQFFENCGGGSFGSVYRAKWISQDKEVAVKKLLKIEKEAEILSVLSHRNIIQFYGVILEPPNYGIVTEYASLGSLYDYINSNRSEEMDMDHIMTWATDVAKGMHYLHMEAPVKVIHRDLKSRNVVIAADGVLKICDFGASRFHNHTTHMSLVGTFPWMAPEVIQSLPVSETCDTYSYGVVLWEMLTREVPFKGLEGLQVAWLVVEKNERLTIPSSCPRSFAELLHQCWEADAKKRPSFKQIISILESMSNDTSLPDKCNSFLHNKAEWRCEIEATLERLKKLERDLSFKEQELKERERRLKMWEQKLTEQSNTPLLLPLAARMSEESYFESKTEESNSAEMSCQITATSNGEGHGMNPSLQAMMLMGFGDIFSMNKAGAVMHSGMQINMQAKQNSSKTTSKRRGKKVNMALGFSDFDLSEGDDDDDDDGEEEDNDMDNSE

O=C(O)C(F)F.c1ccc(-c2nn3c(c2-c2ccnc4cc(-c5nc6ccccc6[nH]5)ccc24)CCC3)nc1 [Example 87, 7-(1H-Benzoimdazol-2-yl)-4-(2-pyridin-2-yl-5,6-dihydro-4H-pyrrolo[1,2-b]pyrazol-3-yl)quinoline Difluoroacetic Acid] and O=C(O)C(F)F.c1ccc(-c2nn3c(c2-c2ccnc4cc(-c5cncnc5)ccc24)CCC3)nc1 [Example 88, 4-(2-pyridin-2-yl-5,6-dihydro-4H-pyrrolo[1,2-b]pyrazol-3-yl)-7-pyrimidin-5-yl-quinoline Difluoroacetic Acid] cannot be ordered by IC50: at most 100 nM for the first, at most 1000 nM for the second.

Nc1ccc(-c2ccc3c(-c4c(-c5ccccn5)nn5c4CCC5)ccnc3c2)cc1Cl [Example 90, 2-Chloro-4-[4-(2-pyridin-2-yl-5,6-dihydro-4H-pyrrolo[1,2-b]pyrazol-3-yl)-quinolin-7-yl]-phenylamine Ditrifluoroacetic Acid] and Nc1nc2ccc(-c3ccc4c(-c5c(-c6ccccn6)nn6c5CCC6)ccnc4c3)cc2s1 [Example 94, 6-[4-(2-Pyridin-2-yl-5,6-dihydro-4H-pyrrolo[1,2-b]pyrazol-3-yl)-quinolin-7-yl]-benzothiazol-2-yl amine Tris trifluoroacetic Acid] cannot be ordered by IC50: at most 100 nM for the first, at most 100 nM for the second.

Oc1c(F)cc(-c2ccc3c(-c4c(-c5ccccn5)nn5c4CCC5)ccnc3c2)cc1Cl [Example 91, 2-Chloro-6-fluoro-4-[4-(2-pyridin-2-yl-5,6-dihydro-4H-pyrrolo[1,2-b]pyrazol-3-yl)-quinolin-7-yl]-phenol Trifluoroacetic Acid] and Oc1cc(-c2ccc3c(-c4c(-c5ccccn5)nn5c4CCC5)ccnc3c2)cc(F)c1F [Example 93, 2,3-Difluoro-5-[4-(2-pyridin-2-yl-5,6-dihydro-4H-pyrrolo[1,2-b]pyrazol-3-yl)-quinolin-7-yl]-phenol Trifluoroacetic Acid] cannot be ordered by IC50: at most 100 nM for the first, at most 100 nM for the second.

NS(=O)(=O)c1ccc(-c2ccc3c(-c4c(-c5ccccn5)nn5c4CCC5)ccnc3c2)s1 [Example 92, 5-[4-(2-Pyridin-2-yl-5,6-dihydro-4H-pyrrolo[1,2-b]pyrazol-3-yl)-quinolin-7-yl]-thiophene-2-sulfonic acid amide Trifluoroacetic Acid] and NS(=O)(=O)c1ccccc1-c1ccc2c(-c3c(-c4ccccn4)nn4c3CCC4)ccnc2c1 [Example 97, 2-[4-(2-Pyridin-2-yl-5,6-dihydro-4H-pyrrolo[1,2-b]pyrazol-3-yl)-quinolin-7-yl]-benzenesulfonamide] cannot be ordered by IC50: at most 100 nM for the first, at most 1000 nM for the second.

NS(=O)(=O)c1ccc(-c2ccc3c(-c4c(-c5ccccn5)nn5c4CCC5)ccnc3c2)cc1 [Example 95, 4-[4-(2-Pyridin-2-yl-5,6-dihydro-4H-pyrrolo[1,2-b]pyrazol-3-yl)-quinolin-7-yl]-benzenesulfonamide] and NS(=O)(=O)c1cccc(-c2ccc3c(-c4c(-c5ccccn5)nn5c4CCC5)ccnc3c2)c1 [Example 96, 3-[4-(2-Pyridin-2-yl-5,6-dihydro-4H-pyrrolo[1,2-b]pyrazol-3-yl)-quinolin-7-yl]-benzenesulfonamide] cannot be ordered by IC50: at most 100 nM for the first, at most 100 nM for the second.

c1ccc(-c2nn3c(c2-c2ccnc4cc(-n5ccnc5)ccc24)CCC3)nc1 [Example 98, 7-Imidazol-1-yl-4-(2-pyridin-2-yl-5,6-dihydro-4H-pyrrolo[1,2-b]pyrazol-3-yl)quinoline Ditrifluoroacetic Acid] and c1ccc(-c2nn3c(c2-c2ccnc4cc(-n5cccn5)ccc24)CCC3)nc1 [Example 100, 7-Pyrazol-1-yl-4-(2-pyridin-2-yl-5,6-dihydro-4H-pyrrolo[1,2-b]pyrazol-3-yl)quinoline Trifluoroacetic Acid] cannot be ordered by IC50: at most 1000 nM for the first, at most 100 nM for the second.

c1ccc(-c2nn3c(c2-c2ccnc4cc(-n5cncn5)ccc24)CCC3)nc1 [Example 99, 4-(2-Pyridin-2-yl-5,6-dihydro-4H-pyrrolo[1,2-b]pyrazol-3-yl)-7-[1,2,4]triazol-1-yl-quinoline ditrifluoroacetic Acid] and c1ccc(-c2nn3c(c2-c2ccnc4cc(-n5ccnn5)ccc24)CCC3)nc1 [Example 101, 4-(2-pyridin-2-yl-5,6-dihydro-4H-pyrrolo[1,2-b]pyrazol-3-yl-)-7-[1,2,3]triazol-1-yl-quinoline ditrifluoroacetic Acid] cannot be ordered by IC50: at most 1000 nM for the first, at most 1000 nM for the second.

CC(C)(C)OC(=O)N1CCN(c2ccc3c(-c4c(-c5ccccn5)nn5c4CCC5)ccnc3c2)CC1 [Example 102, 4-[4-(2-Pyridin-2-yl-5,6-dihydro-4H-pyrrolo[1,2-b]pyrazol-3-yl)-quinolin-7-yl]-piperazine-1-carboxylic Acid tert-Butyl Ester] and c1ccc(-c2nn3c(c2-c2ccnc4cc(N5CCCCC5)ccc24)CCC3)nc1 [Example 103, 7-Piperidin-1-yl-4-(2-pyridin-2-yl-5,6-dihydro-4H-pyrrolo[1,2-b]pyrazol-3-yl)-quinoline] cannot be ordered by IC50: at most 10000 nM for the first, at most 1000 nM for the second.

O=S1(=O)CCN(c2ccc3c(-c4c(-c5ccccn5)nn5c4CCC5)ccnc3c2)CC1 [Example 104, 7-(1,1-Dioxo-1λ^6-thiomorph-olin-4-yl)-4-(2-pyridin-2-yl-5,6-dihydro-4H-pyrrolo[1,2-b]pyrazol-3-yl)-quinoline] and c1ccc(-c2nn3c(c2-c2ccnc4cc(-c5ccc(OCCN6CCCC6)cc5)ccc24)CCC3)nc1 [Example 111, 4-(2-Pyridin-2-yl-5,6-dihydro-4H-pyrrolo[1,2-b]pyrazol-3-yl)-7-[4-(2-pyrrolidin-1-yl-ethoxy)phenyl] quinoline Ditrifluoroacetic Acid] cannot be ordered by IC50: at most 10000 nM for the first, at most 100 nM for the second.

COC(=O)CCc1ccc(-c2ccc3c(-c4c(-c5ccccn5)nn5c4CCC5)ccnc3c2)cc1 [Example 106, 3-{4-[4-(2-pyridin-2-yl-5,6-dihydro-4H-pyrrolo[1,2-b]pyrazol-3-yl-)quinolin-7-yl]phenyl}propionic Acid Methyl Ester] and NC(=O)CCc1ccc(-c2ccc3c(-c4c(-c5ccccn5)nn5c4CCC5)ccnc3c2)cc1 [Example 107, 3-{4-[4-(2-Pyridin-2-yl-5,6-dihydro-4H-pyrrolo[1,2-b]pyrazol-3-yl)quinolin-7-yl]phenyl}propionamide] cannot be ordered by IC50: at most 100 nM for the first, at most 100 nM for the second.

CN(C)CCOc1ccc(-c2ccc3c(-c4c(-c5ccccn5)nn5c4CCC5)ccnc3c2)cc1 [Example 108, Dimethyl-(2-{4-[4-(2-Pyridin-2-yl-5,6-dihydro-4H-pyrrolo[1,2-b]pyrazol-3-yl)quinolin-7-yl]phenoxy}ethyl)amine Ditrifluoroacetic Acid] and CN(C)CCCOc1ccc(-c2ccc3c(-c4c(-c5ccccn5)nn5c4CCC5)ccnc3c2)cc1 [Example 113, Dimethyl-(3-{4-[4-(2-Pyridin-2-yl-5,6-dihydro-4H-pyrrolo[1,2-b]pyrazol-3-yl)quinolin-7-yl]phenoxy}propyl)amine Ditrifluoroacetic Acid] cannot be ordered by IC50: at most 100 nM for the first, at most 100 nM for the second.

c1ccc(-c2nn3c(c2-c2ccnc4cc(-c5ccc(OCCN6CCOCC6)cc5)ccc24)CCC3)nc1 [Example 109, 7-[4-(2-Morpholin-4-yl-ethoxy)phenyl]-4-(2-Pyridin-2-yl-5,6-dihydro-4H-pyrrolo[1,2-b]pyrazol-3-yl)quinoline Ditrifluoroacetic Acid] and c1ccc(-c2nn3c(c2-c2ccnc4cc(-c5ccc(OCCCN6CCOCC6)cc5)ccc24)CCC3)nc1 [Example 114, 7-[4-(3-Morpholin-4-yl-propoxy)phenyl]-4-(2-Pyridin-2-yl-5,6-dihydro-4H-pyrrolo[1,2-b]pyrazol-3-yl)quinoline Ditrifluoroacetic Acid] cannot be ordered by IC50: at most 100 nM for the first, at most 100 nM for the second.

c1ccc(-c2nn3c(c2-c2ccnc4cc(-c5ccc(OCCN6CCCCC6)cc5)ccc24)CCC3)nc1 [Example 110, 7-[4-(2-Piperidin-1-yl-ethoxy)phenyl]-4-(2-Pyridin-2-yl-5,6-dihydro-4H-pyrrolo[1,2-b]pyrazol-3-yl)quinoline Ditrifluoroacetic Acid] and c1ccc(-c2nn3c(c2-c2ccnc4cc(-c5ccc(OCCCN6CCCCC6)cc5)ccc24)CCC3)nc1 [Example 112, 7-[4-(3-Piperdin-1-yl-propoxy)phenyl]-4-(2-Pyridin-2-yl-5,6-dihydro-4H-pyrrolo[1,2-b]pyrazol-3-yl)quinoline Ditrifluoroacetic Acid] cannot be ordered by IC50: at most 100 nM for the first, at most 100 nM for the second.

c1ccc(-c2nn3c(c2-c2ccnc4cc(-c5ccc(OCCCN6CCCC6)cc5)ccc24)CCC3)nc1 [Example 115, 4-(2-Pyridin-2-yl-5,6-dihydro-4H-pyrrolo[1,2-b]pyrazol-3-yl)-7-[4-(3-pyrrolidin-1-yl-propoxy)phenyl] quinoline Ditrifluoroacetic Acid] and FCCOc1ccc(-c2ccc3c(-c4c(-c5ccccn5)nn5c4CCC5)ccnc3c2)cc1 [Example 119, 7-[4-(2-Fluoroethoxy)phenyl]-4-(2-pyridin-2-yl-5,6-dihydro-4H-pyrrolo[1,2-b]pyrazol-3-yl)quinoline Trifluoroacetic Acid] cannot be ordered by IC50: at most 100 nM for the first, at most 100 nM for the second.

NC(=O)COc1ccc(-c2ccc3c(-c4c(-c5ccccn5)nn5c4CCC5)ccnc3c2)cc1 [Example 117, 2-{4-[4-(2-Pyridin-2-yl-5,6-dihydro-4H-pyrrolo[1,2-b]pyrazol-3-yl)quinolin-7-yl]phenoxy}acetamide Trifluoroacetic Acid] and COCCOc1ccc(-c2ccc3c(-c4c(-c5ccccn5)nn5c4CCC5)ccnc3c2)cc1 [Example 118] cannot be ordered by IC50: at most 100 nM for the first, at most 100 nM for the second.

Work on FC(F)(F)COc1ccc(-c2ccc3c(-c4c(-c5ccccn5)nn5c4CCC5)ccnc3c2)cc1 [Example 120, 4-(2-Pyridin-2-yl-5,6-dihydro-4H-pyrrolo[1,2-b]pyrazol-3-yl)-7-[4-(2,2,2-trifluoroethoxy)phenyl)quinoline Trifluoroacetic Acid] yielded an IC50 of at most 100 nM.
